Drawing on patent US20120135995A1, “FUNGICIDAL DIPHENYL-SUBSTITUTED PYRIDAZINES” (E.I. Dupont de Nemours and Company, priority 2009, published 2012), this text covers pest or weed control and melting point for 1 compound.

Each structure is given as a SMILES string.

Data set [1] has as its system Botrytis cinerea. The experiment in a line: Test A: tomato seedlings sprayed, next day inoculated with Botrytis cinerea (tomato Botrytis), visual disease rating. The following applies: Botrytis cinerea, 200 ppm test suspension, sprayed day before inoculation. The data set is classed as in vivo. The method, boiled down: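 Tomato seedlings were sprayed to run-off with 200 ppm suspension (≈500 g/ha; 40 ppm where starred) and inoculated next day with B. cinerea spores. Plants were held 48 h at 20 °C in saturated humidity, then 3 days at 24 °C, and disease control was rated visually, 0–100, relative to controls.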

The test system of data set [2] is Puccinia recondita f. sp. tritici. The experiment in a line: Test E1: wheat seedlings inoculated with Puccinia recondita f. sp. tritici (wheat leaf rust), sprayed afterwards, visual disease rating. The data set is classed as in vivo. The following applies: Puccinia recondita, 200 ppm test suspension, sprayed after inoculation.
Data set [3] relates to Alternaria solani. The experiment in a line: Test B: tomato seedlings sprayed, next day inoculated with Alternaria solani (tomato early blight), visual disease rating. In kind it is in vivo. The settings on record: Alternaria solani, 200 ppm test suspension, sprayed day before inoculation. The method, boiled down: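 Tomato seedlings sprayed to run-off with 200 ppm (some 40 ppm) compound suspensions in acetone/water with surfactant; inoculated next day with A. solani spores. Kept 48 h saturated humidity at 27 °C, then 5 days at 20 °C; visual disease control rated 0–100 relative to untreated controls.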

In data set [4] the test system is Erysiphe graminis. The experiment in a line: Test F: wheat seedlings sprayed, next day inoculated with Erysiphe graminis (wheat powdery mildew), visual disease rating. The settings on record: Blumeria graminis, 200 ppm test suspension, sprayed day before inoculation. In kind it is in vivo. The method, boiled down:
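Seedlings sprayed to run-off with compound suspension in acetone/water containing 250 ppm Trem® 014 (200 ppm ≈ 500 g/ha; asterisked ratings 40 ppm). Inoculated next day with Erysiphe graminis spores and kept 8 days at 20° C. Visual rating 0-100% disease control relative to controls.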

The subject of data set [5] is Puccinia recondita f. sp. tritici. The experiment in a line: Test E2: wheat seedlings sprayed, next day inoculated with Puccinia recondita f. sp. tritici (wheat leaf rust), visual disease rating. In kind it is in vivo. The following applies: Puccinia recondita, 200 ppm test suspension, sprayed day before inoculation. The method, boiled down: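 Compounds in acetone/water (50/50) with 250 ppm Trem® 014 sprayed to run-off at 200 ppm (equivalent to 500 g/ha) or 40 ppm where marked "*". Seedlings inoculated next day with spores, held 24 h saturated at 20° C, then 7 days at 20° C; visual rating 0-100% disease control relative to controls.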

The subject of data set [6] is Septoria nodorum. The experiment in a line: Test C: wheat seedlings sprayed, next day inoculated with Septoria nodorum (wheat glume blotch), visual disease rating. In kind it is in vivo. The following applies: Parastagonospora nodorum, 200 ppm test suspension, sprayed day before inoculation. The gist of the method: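 Preventive foliar test: wheat seedlings sprayed to run-off at 200 ppm (≈500 g/ha) or 40 ppm, in acetone/water with 250 ppm Trem 014, then inoculated with spores the next day. Held 48 h saturated at 24° C, then 6 days at 20° C; disease control rated visually, 0–100 relative to untreated controls.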

Data set [7] relates to Septoria tritici. The experiment in a line: Test D: wheat seedlings sprayed, next day inoculated with Septoria tritici (wheat leaf blotch), visual disease rating. The data set is classed as in vivo. The settings on record: Zymoseptoria tritici, 200 ppm test suspension, sprayed day before inoculation. The method, boiled down:
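Wheat seedlings sprayed to run-off with 200 ppm (≈500 g/ha) or 40 ppm suspension, inoculated with Septoria tritici spores next day. Held at 24° C in saturated atmosphere for 48 h, then 20° C for 19 days before visual rating, expressed as 0–100% disease control relative to controls.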

Consider `COc1cc(OC)cc(-c2c(C)nnc(F)c2-c2c(F)cccc2F)c1` [Compound 33, 4-(2,6-difluorophenyl)-3-fluoro-5-(3,5-dimethoxyphenyl)-6-methylpyridazine], for which the melting point (in general, the temperature, or range, at which the solid turns liquid) lay within 150 to 151 °C. In addition, the pest or weed control (usually the degree to which the test organism was suppressed or injured, in per cent) at 200 ppm in data set [1] was determined as 99%. Moreover, the pest or weed control at 200 ppm in data set [2] was 60%. The compound further yielded a pest or weed control at 200 ppm in data set [3] of 100%. The same compound registered a pest or weed control at 200 ppm in data set [4] of 99%. For the same compound, the pest or weed control at 200 ppm in data set [5] came to 100%. In addition, the pest or weed control at 200 ppm in data set [6] is 99%. In addition, in data set [7], the pest or weed control at 200 ppm worked out at 100%.
